In patent US10575515B2, “Methods and compositions for preserving tissues and organs” (The General Hospital Corporation, priority 2010, dated 2020):

Assays:
hepatocytes [1] = assay: Hepatocyte viability after 60 min incubation with isotonic mixtures of sugars and DMSO; format: cell-based
Protocol: Significant loading of 3OMG can be achieved within 20 minutes (FIG. 37a). The hepatocyte viability when incubated with 3OMG is statistically equal to other saccharides that are not cryopreservative for mammalian cells (FIG. 37b). By comparison, incubation with a common cryopreservative dimethyl sulfoxide (DMSO) under similar conditions reduces viability to 12%.
Hepatocytes can be loaded with 3OMG within 20 minutes in vitro. FIG. 37A illustrates that the kinetics of 3OMG uptake show significant loading of cells with 3OMG within 20 minutes, and even more rapid release with washing; inventors can currently perfuse the livers in stable condition for more than 6 hrs, which is more than sufficient for loading with 3OMG.

[2] = tested on: C3A cells (human liver carcinoma line); assay: Cryopreservation of C3A cells with troglitazone, post-thaw viability by trypan blue exclusion; format: cell-based; conditions: 25 μM troglitazone 30 mins, cryopreservation in liquid nitrogen, vs without
Description: Inventors performed a molecular docking study to identify ligands of PPAR-γ, a transcription factor that is known to have the ability to modulate metabolic rate (see FIG. 34), where inventors identified Troglitazone as a candidate. Inventors also performed preliminary studies to test the effect of supplementation in preservation efficacy. In these initial studies inventors used C3A cells (human liver carcinoma line) and cryopreservation rather than supercooling, due to availability of data to be used as controls. Inventors observed that Troglitazone increased post-thaw viability ˜2.5 fold. We are currently testing Troglitazone and other compounds with primary rat hepatocytes both in cryopreservation and supercooled storage. Nearly confluent C3A cell flasks were trypsinized in PBS solution; cells were sedimented by centrifugation (10 min at […] at 4 degree C.). The medium was replaced by adding 2 mL of HTS and the cell pallets were re-suspended in the HTS by gentle pipetting. The cell samples in 1 mL aliquots were put in 1.5 mL cryovials. The samples were frozen in a controlled rate freezer using a freeze controlled Cryobath (Cryologic, Victoria, Australia) with a CL-8800 temperature controller (Cryologic). A cooling rate of 1 degree C./min was used. The samples were seeded with ice at −4 degrees C. by using a cotton bulb dipped in liquid nitrogen. […]

hepatocytes [3] = assay: SZNF storage of cells at −4° C. with metabolic supplement, cell viability; format: cell-based; conditions: tandem SZNF with metabolic suppressant
Protocol: Inventors are testing a variety of metabolic supplements to enhance viability during preservation. One of the most successful additives inventors tested is magnolol, a biphenolic compound with multiple properties (including tumor suppression and antioxidative capabilities). […] Note that this study was performed early on where stable preservation temperature in plate culture models was −4° C., testing at −10° C. is currently in progress.
The cells were preserved on collagen coated 6 well plates and cultured at 37° C. for one day prior to preservation. Cells were then preserved 48 hours at −4° C.; viability was determined 1 hr after rewarming

[4] = Supercooling in cryovials at subzero temperatures in selected media formulations; format: physicochemical
Protocol: We tested a variety of preservation media and additives for achieving SZNF storage overnight in a controlled rate freezer. We were able to reach −10° C. without any freezing in supplemented University of Wisconsin (UW) and Hypothermosol (HTS) by proper tuning of the rate of temperature reduction. […] FIG. 48 depicts the temperature profile for successful subzero cooling at −10° C.

hepatocytes [5] = assay: Long-term hepatic functions of cryopreserved hepatocytes in collagen sandwich culture; format: cell-based; conditions: albumin, urea, cytochrome P450; 3OMG loaded and frozen
Protocol: Methods: Cells were cultured in a collagen sandwich for […], and media collected daily were analyzed for albumin and urea. All values were normalized by viable cell number (DNA content) and shown as o the means±se (n>9). Urea secretion and resorufin formation were statistically not different (p=0.51 and p=0.3 respectively). Albumin production on days 7-13 were statistically different at p=0.014 (FIG. 39).

rat livers = assay: Subzero nonfreezing storage of whole rat livers at −5° C., histology (H&E); conditions: loaded with 3OMG, 24 hours at −5° C., then NELP with red blood cells
hepatocytes [6] = assay: Cryopreservation of 3OMG-loaded hepatocytes, post-thaw viability by trypan blue exclusion; format: cell-based; conditions: Hepatocyte; 200 mM 3OMG, storage in liquid nitrogen up to one week; read-out: post-thaw cell viability (percentage of unfrozen control)
Protocol: Hepatocytes were incubated with 200 mM 3OMG for 60 min and then washed with sugar-free medium for 30 min. Controls were incubated in glucose-free DMEM (no-sugar control), sucrose (non-permeable/non-intracellular control), and D-glucose (permeable but metabolizable control). Following incubation, cells were pelleted by centrifugation for 5 min, supernatant decanted, and resuspended in cold HypoThermosol solution (HTS) with 200 mM 3OMG, 2DG, sucrose, or D-glucose (1×10^6 cell/mL). Cell suspensions were transferred to 1 mL cryogenic vials and cooled at −1° C./min to −6° C., seeded to induce the formation of extracellular ice by application of cold forceps to the exterior of the cryovials, and then cooled at −1° C./min to −80° C., and finally transferred to liquid nitrogen (−196° C.) for storage lasting 1 to 7 days. Following storage, samples were rapidly thawed in a 37° C. water bath for 2 min with gentle agitation. The samples were then diluted 1:10 in D-glucose-free DMEM and incubated for 10 min at 37° C. to wash out the loaded sugar compounds. Samples were then centrifuged, supernatant decanted, and resuspended in culture medium. The viability of the cryopreserved cells was determined immediately after thawing using a trypan blue exclusion assay and expressed as percent of unfrozen control. […]

C[S+](C)[O-] [dimethyl sulfoxide (DMSO), dimethyl sulfoxide, reference compound]
hepatocyte viability after incubation (hepatocytes [1]; incubation 60 min, isotonic mixture): 12%

Cc1c(C)c2c(c(C)c1O)CCC(C)(COc1ccc(CC3SC(=O)NC3=O)cc1)O2 (stereo not drawn) [Troglitazone]
increase of post-thaw viability [2]: ~2.5 fold

C=CCc1ccc(O)c(-c2cc(CC=C)ccc2O)c1 [magnolol, 5,5′-Diallyl-2,2′-biphenyldiol]
preservation of viability of cells compared to SZNF in the absence of metabolic suppressant agent (hepatocytes [3]): at least 60%

CO[C@@H]([C@H](O)[C@H](O)CO)[C@@H](O)C=O [3OMG, 3-O-methyl-glucose]
temperature reached without any freezing ([4]; overnight, controlled rate freezer): −15 °C
fraction of the time the protocol is stable ([4]; −15° C. in HTS): about 50%
toxicity for hepatocytes (hepatocytes [1]; concentration range studied, 60 min incubation): minimally toxic
long-term hepatic functions vs non-frozen hepatocytes (hepatocytes [5]): similar
histology after storage and NELP perfusion (rat livers): perfect preservation of microstructure
viability at 200000 µM (hepatocytes [6]): > 50%
